Laboratory results taken from US10995091B2 (Proximagen, LLC, priority 2010, dated 2021).

Key:
[1] = test system: haematopoietic stem cells; settings: donors or patients; background statement; cited from earlier work
[2] = test system: multipotential mixed hematopoietic progenitors (CFU-GEMM); test: In vivo mobilization of hematopoietic progenitors, colony forming cell assay (CFU-GEMM) from peripheral blood; settings: C57BL/6 mice, one hour after treatment, compared to G-CSF treatment alone
Description: (§1) The study investigated the ability of Example 30 alone and in combination with G-CSF to induce in vivo mobilization of white blood cells in C57BL/6 mice, as well as hematopoietic progenitors from bone marrow to peripheral blood as assessed by the evaluation of the frequency of colony forming cell colonies (CFC). Peripheral blood samples from each test group were collected 1 hour post injection. The white blood cell count (WBC) was determined from the peripheral blood collected for each individual mouse. Clonogenic progenitors of the multipotential (CFU-GEMM) lineages were assessed. Peripheral blood cells were added to MethoCult® 3434 in triplicate cultures for plating (0.5-3×10^5 cells/dish). Cultures were incubated for 8 days at 37° C., 5% CO2 in humidified incubators. CFU-GEMM colony number was enumerated microscopically using an inverted microscope from appropriately plated culture dishes.

[3] = molecular target: T1, Human CXCR4 transfected HEK293 cells (Homo sapiens, UniProt P61073); test: CXCR4 functional calcium assay (calcium flux FLIPR, antagonism of SDF1 response); format: cell-based; settings: CXCR4 functional activity, antagonism of SDF1 (EC50 concentration), read-out: CXCR4 fKi
T1 construct: expressed in transfected cells; host or cells: HEK293
Procedure, shortened: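 HEK293 cells stably transfected with human CXCR4 were loaded with 2 μM Fluo-4 AM in HBSS containing 2.5 mM probenecid, 0.1% BSA and 10 mM HEPES at pH 7.4 and 37° C. Compound was added first, then SDF1 at its EC50 concentration, and intracellular calcium fluorescence was followed on a FLIPR. Antagonist dose-response curves were fitted.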

[4] = test system: circulating white blood cells (WBC); test: In vivo mobilization of white blood cells (WBC count in peripheral blood); settings: C57BL/6 mice
Description: as §1

[5] = test system: HIV-1IIIB (CXCR4-tropic); test: HIV anti-viral assay in MAGI-CCR5 cells (β-galactosidase reporter); format: cell-based; settings: Human immunodeficiency virus 1, 48 hours with compound and virus, read-out: IC50, HIV-1 antiviral activity
Description: Example 30 was also tested in an HIV antiviral assay that detects compounds that block HIV-1IIIB (CXCR4-tropic) replication via targets in the viral life cycle. The anti-viral assay uses MAGI-CCR5 cells that naturally express CXCR4 which were engineered to express high levels of CD4 and CCR5 and to contain one copy of the HIV-1 LTR promoter driving expression of the β-galactosidase gene upon HIV 1 Tat transactivation. Cells are incubated with Example 30 and the CXCR4-tropic virus HIV-1IIIB for 48 hours after which antiviral efficacy is measured as the inhibition of β-galactosidase reporter expression and cytotoxicity is monitored by MTS staining.

[6] = test system: HIV-1IIIB (CXCR4-tropic) virus; test: CXCR4-tropic HIV-1 attachment assay in MAGI-CCR5 cells (β-galactosidase reporter); format: cell-based; settings: Human immunodeficiency virus 1, MAGI-CCR5, read-out: IC50, inhibition of attachment of CXCR4-tropic HIV-1
Description: Example 30 was tested in an HIV attachment assay, which detects compounds that block HIV-1IIIB (CXCR4-tropic) virus attachment to cells.
The CXCR4-tropic HIV-1 attachment assay uses MAGI-CCR5 cells that naturally express CXCR4 which were engineered to express high levels of CD4 and CCR5 and to contain one copy of the HIV-1 LTR promoter driving expression of the β-galactosidase gene upon HIV-1 Tat transactivation. Cells are incubated with Example 30 and the CXCR4-tropic virus HIV-1IIIB for 3 hours before washing to remove drug and unbound virus. Fresh media is added and the plates are incubated for 48 hours after which antiviral efficacy is measured as the inhibition of β-galactosidase reporter expression and cytotoxicity is monitored by MTS staining.

T1 sequence (P61073 whole entry): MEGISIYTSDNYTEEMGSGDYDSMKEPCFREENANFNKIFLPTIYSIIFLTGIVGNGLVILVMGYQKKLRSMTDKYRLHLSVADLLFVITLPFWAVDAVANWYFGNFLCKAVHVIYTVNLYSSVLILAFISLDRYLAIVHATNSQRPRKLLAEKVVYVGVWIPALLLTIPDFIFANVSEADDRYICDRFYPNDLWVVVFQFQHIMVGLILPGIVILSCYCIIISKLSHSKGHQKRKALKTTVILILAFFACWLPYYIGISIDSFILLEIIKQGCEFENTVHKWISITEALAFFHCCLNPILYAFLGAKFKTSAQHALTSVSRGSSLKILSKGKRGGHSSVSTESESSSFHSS

Compound | Ki [3] [µM] | other results
c1cc(CN2CCCNCCNCCCNCC2)ccc1CN1CCCNCCNCCCNCC1 [Mozobil] | – | success rate of stem cell mobilisation (sufficient yield) [1]: ~90%
CC(C)N1CCC(N2CCCN(c3cccc(C(=O)Nc4ccncc4)n3)CC2)CC1 [Example 30, 6-{4-[1-(Propan-2-yl)piperidin-4-yl]-1,4-diazepan-1-yl}-N-(pyridin-4-yl)pyridine-2-carboxamide] | < 0.02 | multipotential mixed hematopoietic progenitors (CFU-GEMM/ml), in combination with G-CSF [2]: significant increase; circulating white blood cells (WBC) ([4]; 1 hour after treatment, compared to vehicle control group): significant increase; circulating white blood cells (WBC), in combination with G-CSF ([4]; after 1 hour, in combination with G-CSF, compared to G-CSF alone): significant increase; IC50 [5]: 0.03 µM; IC50 [6]: 0.04 µM
CCCCNC(=O)c1cccc(N2CCCN(C3CCN(Cc4ccccc4Cl)CC3)CC2)n1 [Example 138, N-Butyl-6-(4-{1-[(2-chlorophenyl)methyl]piperidin-4-yl}-1,4-diazepan-1-yl)pyridine-2-carboxamide] | 0.5 to 1 | –
CC(C)N1CCC(N2CCCN(c3cccc(-c4cc5ccncc5[nH]4)n3)CC2)CC1 [Example 98, 1-[1-(Propan-2-yl)piperidin-4-yl]-4-(6-{1H-pyrrolo[2,3-c]pyridine-2-yl}pyridine-2-yl)-1,4-diazepane] | 0.02 to 0.1 | –
Cc1cc2nc(-c3cccc(N4CCCN(C5CCN(C(C)C)CC5)CC4)n3)[nH]c2cc1C [Example 146, 5,6-Dimethyl-2-(6-{4-[1-(propan-2-yl)piperidin-4-yl]-1,4-diazepan-1-yl}pyridine-2-yl)-1H-1,3-benzodiazole] | 0.1 to 0.5 | –
CC(C)N1CCC(N2CCCN(c3cccc(-c4cc5cccnc5[nH]4)n3)CC2)CC1 [Example 99, 1-[1-(Propan-2-yl)piperidin-4-yl]-4-(6-{1H-pyrrolo[2,3-b]pyridine-2-yl}pyridine-2-yl)-1,4-diazepane] | 0.02 to 0.1 | –
COCCN1CCC(N2CCCN(c3cccc(C(=O)NCC4CC4)n3)CC2)CC1 [Example 71, N-(Cyclopropylmethyl)-6-{4-[1-(2-methoxyethyl)piperidin-4-yl]-1,4-diazepan-1-yl}pyridine-2-carboxamide] | 0.5 to 1 | –

Second part, led by results:

Ki [3] [µM] | Compound | other results
< 0.02 | CC(C)N1CCC(N2CCCN(c3cccc(C(=O)NCc4cccnc4)n3)CC2)CC1 [Example 34, 6-{4-[1-(Propan-2-yl)piperidin-4-yl]-1,4-diazepan-1-yl}-N-(pyridin-3-ylmethyl)pyridine-2-carboxamide] | –
0.02 to 0.1 | O=C(NC1CCOCC1)c1cccc(N2CCCN(C3CCN(Cc4ccccc4Cl)CC3)CC2)n1 [Example 52, 6-(4-{1-[(2-Chlorophenyl)methyl]piperidin-4-yl}-1,4-diazepan-1-yl)-N-(oxan-4-yl)pyridine-2-carboxamide] | –
0.1 to 0.5 | CC(C)N1CCC(N2CCCN(c3cccc(C(=O)NCC(F)(F)F)n3)CC2)CC1 [Example 10, 6-{4-[1-(Propan-2-yl)piperidin-4-yl]-1,4-diazepan-1-yl}-N-(2,2,2-trifluoroethyl)pyridine-2-carboxamide] | –
< 0.02 | [2H]C1([2H])CCN(c2cccc(C(=O)Nc3ccncc3)n2)CCN1C1CCN(Cc2ccc(F)cc2Cl)CC1 [Example 203, 6-(4-{1-[(2-Chloro-4-fluorophenyl)methyl]piperidin-4-yl}-5,5-dihydrogenio-1,4-diazepan-1-yl)-N-(pyridin-4-yl)pyridine-2-carboxamide] | –
